Laboratory results taken from US7928225B2, “Oxabispidine compounds for the treatment of cardiac arrhythmias” (AstraZeneca AB, priority 2005, dated 2011).

Legend:
[1] = test system: anaesthetised guinea pigs; assay: Test A: Primary electrophysiological effects in anaesthetised guinea pigs (MAP duration); type: in vivo, guinea pig; details: infusion into jugular vein, MAP duration at 75 percent repolarization during pacing, from mean dose-response curve
Experimental: Primary Electrophysiological Effects in Anaesthetised Guinea Pigs
Guinea pigs weighing between 500 and 1000 g were used. The animals were housed for at least one week before the experiment and had free access to food and tap water during that period.
Anaesthesia was induced by an intraperitoneal injection of pentobarbital (50 to 60 mg/kg) and catheters were introduced into one carotid artery (for blood pressure recording and blood sampling) and into one jugular vein (for drug infusions). Needle electrodes were placed on the limbs for recording of ECGs (lead II). […]
The left ventricular epicardium was exposed by a left-sided thoracotomy, and a custom-designed suction electrode for recording of the monophasic action potential (MAP) was applied to the left ventricular free wall. The electrode was kept in position as long as an acceptable signal could be recorded, otherwise it was moved to a new position. […]
Of the numerous variables measured in this analysis, three were selected as the most important for comparison and selection of active compounds. […] Systolic and diastolic blood pressure were measured in order to judge the haemodynamic status of the anaesthetised animal. […]
The mean of the two control recordings was set to zero and the effects recorded after consecutive doses of test substance were expressed as percentage changes from this value. […]

HERG channel = biological target: T1, HERG channel (Homo sapiens, UniProt Q12809); assay: Test B: Rb+-efflux assay for detection of HERG channel blockers; type: cell-based; details: depolarisation-induced Rb+-efflux from Chinese hamster ovary cells stably expressing the HERG-channel
T1 construct: expressed in transfected cells
Experimental: Rb^+-Efflux Assay for Detection of HERG Channel Blockers
The human ether-a-go-go related gene (HERG) encodes the voltage-gated K^+ channel underlying the cardiac rapid delayed rectifier current IKr. The IC50 value for HERG channel blockade was determined using a high throughput functional assay based on depolarisation-induced Rb^+-efflux from Chinese hamster ovary cells stably expressing the HERG-channel.
Cells were grown in Ham F12 (Life Technologies 31765-027) supplemented with 10% FBS and 0.6 mg/mL hygromycin B and were routinely passaged twice-weekly. For experimental studies, cells were plated at a density of 15,000 cells/well in Falcon, 384-well tissue culture-treated black-walled clear-bottomed plates and were thereafter incubated overnight at 37° C. in a cell culture incubator.
Following incubating overnight, cell plates were washed and a Rb^+-Load buffer (a physiological buffer containing Rb^+) was added. Cell plates were then incubated for 3 hours and were thereafter washed. Following this wash, the test compounds were added. The cell plates were then incubated for another 10 minutes and, following this incubation period, external K^+ concentration was increased in order to depolarize the cells and activate HERG channels. […]
Compound activity was expressed as: […]

T1 sequence (Q12809 whole entry): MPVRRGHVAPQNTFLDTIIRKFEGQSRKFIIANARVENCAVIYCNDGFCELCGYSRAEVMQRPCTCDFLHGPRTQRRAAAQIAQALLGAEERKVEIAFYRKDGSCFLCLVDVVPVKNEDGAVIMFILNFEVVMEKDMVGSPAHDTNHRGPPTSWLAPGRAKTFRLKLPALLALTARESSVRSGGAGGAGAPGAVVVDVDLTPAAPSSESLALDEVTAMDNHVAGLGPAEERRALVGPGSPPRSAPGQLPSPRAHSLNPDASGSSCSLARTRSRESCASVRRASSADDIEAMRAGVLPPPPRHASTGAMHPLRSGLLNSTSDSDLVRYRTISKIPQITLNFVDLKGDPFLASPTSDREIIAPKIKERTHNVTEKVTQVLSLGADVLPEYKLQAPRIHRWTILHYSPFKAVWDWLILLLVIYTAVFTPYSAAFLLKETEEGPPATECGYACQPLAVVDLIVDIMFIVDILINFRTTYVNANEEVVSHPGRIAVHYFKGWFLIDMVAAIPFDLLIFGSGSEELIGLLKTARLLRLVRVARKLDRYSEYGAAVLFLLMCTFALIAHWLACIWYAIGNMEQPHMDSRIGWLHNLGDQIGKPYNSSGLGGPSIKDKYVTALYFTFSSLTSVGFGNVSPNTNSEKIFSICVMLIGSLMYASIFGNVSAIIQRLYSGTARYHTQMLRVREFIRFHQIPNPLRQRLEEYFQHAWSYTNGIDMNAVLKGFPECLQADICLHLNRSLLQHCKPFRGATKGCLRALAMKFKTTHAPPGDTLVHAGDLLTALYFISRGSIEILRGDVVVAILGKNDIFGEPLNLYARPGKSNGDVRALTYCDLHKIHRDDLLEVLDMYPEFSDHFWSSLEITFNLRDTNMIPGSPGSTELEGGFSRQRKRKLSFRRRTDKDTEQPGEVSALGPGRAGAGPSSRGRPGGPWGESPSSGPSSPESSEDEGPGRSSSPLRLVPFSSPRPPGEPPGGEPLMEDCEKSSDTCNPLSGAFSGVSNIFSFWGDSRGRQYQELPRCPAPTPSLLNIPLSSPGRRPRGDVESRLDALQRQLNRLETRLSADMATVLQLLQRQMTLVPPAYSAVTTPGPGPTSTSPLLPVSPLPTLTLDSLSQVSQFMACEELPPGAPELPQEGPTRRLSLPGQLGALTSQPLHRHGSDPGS

Compound: CC(C)(C)OC(=O)NCCCN1CC2CN(CCCOc3ccc(C#N)cc3)CC(C1)O2 [Example 5]
- D10 (cumulative dose prolonging the MAP duration by 10% from the baseline; index of class III electrophysiological potency) [1]: 6.8
- pIC50 for HERG channel blockade (HERG channel): 6.19

Compound: CC(C)(C)OC(=O)NCCN1CC2CN(CCOc3ccc(C#N)cc3F)CC(C1)O2 [Example 2, tert-Butyl (2-{7-[2-(4-cyano-2-fluorophenoxy)ethyl]-9-oxa-3,7-diazabicyclo-[3.3.1]non-3-yl}ethyl)carbaamate]
- D10 (cumulative dose prolonging the MAP duration by 10% from the baseline; index of class III electrophysiological potency) [1]: 6.3
- pIC50 for HERG channel blockade (HERG channel): 5.0
